In PubChem BioAssay AID624473 (Sanford-Burnham Center for Chemical Genomics, 2012):
Values joined by “and” are separate entries in the source; they are usually repeats but may differ in a detail not shown here. Equal entries are not always repeated. Active and inactive are the calls of the source.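 Rule for the calls: active = IC50 at or below 20 µM in the dose response; inactive = the rest.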

system: HL-1 cardiomyocytes, 2-deoxyglucose injury, ATPlite viability, 2 h; experiment: cardiomyocyte ATP preservation under glycolysis block – HL-1 cells, 2-deoxyglucose, set 2, SAR follow-up (AID 624473)

Row | SMILES | IC50
1 | COc1cccc(CNC(=O)c2cc(-c3cc(OC)c(OC)c(OC)c3)nc3ccccc23)c1 | 12.2 µM
2 | COc1cccc(NC(=O)c2cc(-c3cc(OC)c(OC)c(OC)c3)nc3ccccc23)c1 | > 79 µM (inactive)
3 | O=C1c2ccccc2N2C(=O)c3ccccc3C2N1c1ccccc1 (stereo not given) | > 79 µM (inactive)
4 | COc1ccc2c(c1OC)C(=O)N1c3ccccc3C(=O)N(Cc3ccccc3Cl)C21 (stereo not given) | 4 µM
5 | COc1cccc(N2C(=O)c3ccccc3N3C(=O)c4c(ccc(OC)c4OC)C23)c1 (stereo not given) | 15.6 µM
6 | COc1ccc(-c2cc(C(=O)Nc3cccc(C(C)=O)c3)c3ccccc3n2)cc1OC | 19.8 µM (inactive)
7 | COc1ccc(-c2cc(C(=O)Nc3cccc(C(C)=O)c3)c3ccccc3n2)cc1 | > 79 µM (inactive)
8 | COc1cc(-c2cc(C(=O)Nc3cccc(C(F)(F)F)c3)c3ccccc3n2)cc(OC)c1OC | > 79 µM (inactive)
9 | CCN(CC(=O)Nc1ccc(OC)cc1)C(=O)c1cc(-c2cc(OC)c(OC)c(OC)c2)nc2ccccc12 | 22.6 µM (inactive)
10 | COc1ccc2c(c1OC)C(=O)N1c3ccccc3C(=O)N(c3ccc(Br)cc3)C21 (stereo not given) | 1.95 µM
11 | COc1ccc2c(c1OC)C(=O)N1c3ccccc3C(=O)N(c3ccccc3)C21 (stereo not given) | 5.09 µM
12 | COc1ccc2c(c1OC)C(=O)N1c3ccccc3C(=O)N(c3ccc(C(C)(C)C)cc3)C21 (stereo not given) | > 79 µM (inactive)
13 | COc1ccc2c(c1OC)C(=O)N1c3ccccc3C(=O)N(Cc3cccc(Cl)c3)C21 (stereo not given) | 8.52 µM
14 | COc1cccc(-c2cc(C(=O)Nc3cccc(C(C)=O)c3)c3ccccc3n2)c1 | 9.47 µM
15 | COc1cc(-c2cc(C(=O)Nc3cccc(Cl)c3)c3ccccc3n2)cc(OC)c1OC | > 79 µM (inactive)
16 | COc1cc(-c2cc(C(=O)Nc3cccc(C(C)=O)c3)c3cc(Cl)ccc3n2)cc(OC)c1OC | > 79 µM (inactive)
17 | COc1cc(-c2cc(C(=O)Nc3ccc(C(C)=O)cc3)c3ccccc3n2)cc(OC)c1OC | 6.65 µM
18 | COc1ccc2c(c1OC)C(=O)N1c3ccccc3C(=O)N(c3ccc(C)cc3)C21 (stereo not given) | 3.03 µM

Row | SMILES | IC50
19 | COc1ccc2c(c1OC)C(=O)N1c3ccccc3C(=O)N(c3cccc(C(F)(F)F)c3)C21 (stereo not given) | 19.8 µM
20 | COc1cc(-c2cc(C(=O)Nc3cccc(C(C)=O)c3)c3ccccc3n2)cc(OC)c1OC | 7.15 µM and 10.3 µM
21 | COc1ccc2c(c1OC)C(=O)N1c3ccccc3C(=O)N(c3cccc(F)c3)C21 (stereo not given) | 13.9 µM
22 | COc1cc(-c2cc(C(=O)Nc3cccc(F)c3)c3ccccc3n2)cc(OC)c1OC | > 79 µM (inactive)
23 | COc1cccc(N2C(=O)c3ccccc3N3C(=O)c4ccccc4C23)c1 (stereo not given) | > 79 µM (inactive)
24 | COc1ccc2c(c1OC)C(=O)N1c3ccccc3C(=O)N(c3cccc(Br)c3)C21 (stereo not given) | 3.64 µM and 34.8 µM (inactive)
25 | COc1ccc2c(c1OC)C(=O)N1c3ccccc3C(=O)N(c3cccc(Cl)c3)C21 (stereo not given) | 7.57 µM
26 | COc1ccc(NC(=O)c2cc(-c3cc(OC)c(OC)c(OC)c3)nc3ccccc23)cc1 | > 79 µM (inactive)
27 | O=C1c2ccccc2N2C(=O)c3ccccc3C2N1c1cccc(Br)c1 (stereo not given) | > 79 µM (inactive)
28 | COc1ccc(N2C(=O)c3ccccc3N3C(=O)c4c(ccc(OC)c4OC)C23)cc1 (stereo not given) | 18.2 µM
29 | CCN(CC(=O)Nc1ccc(OC)cc1)C(=O)c1cc(-c2cccs2)nn1-c1ccccc1 | 8.33 µM and 9.6 µM
30 | CCOC(=O)c1cccc(NC(=O)c2cc(-c3cc(OC)c(OC)c(OC)c3)nc3ccccc23)c1 | 4.29 µM
31 | COc1cc(-c2cc(C(=O)Nc3ccccc3)c3ccccc3n2)cc(OC)c1OC | 8.04 µM
32 | CC(=O)c1cccc(NC(=O)c2cc(-c3ccccc3)nc3ccccc23)c1 | 14 µM
33 | COc1ccc2c(c1OC)C(=O)N1c3ccccc3C(=O)N(c3cccc(C)c3)C21 (stereo not given) | 16.5 µM
34 | COc1cccc(CNC(=O)c2cc(-c3ccc(OC)c(OC)c3)nc3ccccc23)c1 | 9.42 µM
35 | COc1cc(-c2cc(C(=O)Nc3cccc(C)c3)c3ccccc3n2)cc(OC)c1OC | > 79 µM (inactive)
